In brackets after ≈: the same amount, converted by molar mass.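 How tested: cells in 96-well plates exposed to compound for 48 hours at five concentrations. GI50 marks 50% less growth. TGI: total growth inhibition.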
Columns and labels:
Assay in all cases: DTP human tumour cell line panel, 48 h
BT-549 breast = tested on: BT-549 breast
MALME-3M melanoma = tested on: MALME-3M melanoma
RPMI-8226 leukemia = tested on: RPMI-8226 leukemia
MCF7 breast = tested on: MCF7 breast
MOLT-4 leukemia = tested on: MOLT-4 leukemia
MDA-N = tested on: MDA-N
RXF 393 renal = tested on: RXF 393 renal
NCI-H226 lung = tested on: NCI-H226 lung
NCI-H23 lung = tested on: NCI-H23 lung
TK-10 renal = tested on: TK-10 renal
NCI/ADR-RES ovarian = tested on: NCI/ADR-RES ovarian
UACC-62 melanoma = tested on: UACC-62 melanoma
IGROV1 ovarian = tested on: IGROV1 ovarian
UO-31 renal = tested on: UO-31 renal
SR leukemia = tested on: SR leukemia
DU-145 prostate = tested on: DU-145 prostate
T-47D breast = tested on: T-47D breast
SF-295 CNS = tested on: SF-295 CNS
SNB-19 CNS = tested on: SNB-19 CNS
SW-620 colon = tested on: SW-620 colon
PC-3 prostate = tested on: PC-3 prostate
HCT-116 colon = tested on: HCT-116 colon
OVCAR-8 ovarian = tested on: OVCAR-8 ovarian
A498 renal = tested on: A498 renal
CAKI-1 renal = tested on: CAKI-1 renal
A549 NSCLC = tested on: A549 NSCLC
SK-MEL-28 melanoma = tested on: SK-MEL-28 melanoma
NCI-H522 lung = tested on: NCI-H522 lung
COLO 205 colon = tested on: COLO 205 colon
OVCAR-3 ovarian = tested on: OVCAR-3 ovarian
HOP-62 NSCLC = tested on: HOP-62 NSCLC
UACC-257 melanoma = tested on: UACC-257 melanoma
SF-268 CNS = tested on: SF-268 CNS
HL-60(TB) leukemia = tested on: HL-60(TB) leukemia
EKVX NSCLC = tested on: EKVX NSCLC
CCRF-CEM leukemia = tested on: CCRF-CEM leukemia
SN12C renal = tested on: SN12C renal
HT29 colon = tested on: HT29 colon
HS 578T breast = tested on: HS 578T breast
HOP-92 NSCLC = tested on: HOP-92 NSCLC
SNB-75 CNS = tested on: SNB-75 CNS
M14 melanoma = tested on: M14 melanoma
U251 CNS = tested on: U251 CNS
OVCAR-5 ovarian = tested on: OVCAR-5 ovarian
SK-OV-3 ovarian = tested on: SK-OV-3 ovarian
SK-MEL-5 melanoma = tested on: SK-MEL-5 melanoma
ACHN renal = tested on: ACHN renal
HCT-15 colon = tested on: HCT-15 colon
HCC-2998 colon = tested on: HCC-2998 colon
MDA-MB-231 breast = tested on: MDA-MB-231 breast
KM12 colon = tested on: KM12 colon
LOX IMVI melanoma = tested on: LOX IMVI melanoma
SK-MEL-2 melanoma = tested on: SK-MEL-2 melanoma
SF-539 CNS = tested on: SF-539 CNS
OVCAR-4 ovarian = tested on: OVCAR-4 ovarian
NCI-H460 lung = tested on: NCI-H460 lung
MDA-MB-435 = tested on: MDA-MB-435
K-562 leukemia = tested on: K-562 leukemia
786-0 renal = tested on: 786-0 renal

## COc1cccc2c1C(=O)c1c(O)c3c(c(O)c1C2=O)CC(O)(C(C)=O)CC3OC1CC(N)C(O)C(C)O1 (centres undefined)
BT-549 breast
  GI50: 0.0458 µg/mL (≈ 0.0868 µM)
  TGI: 0.459 µg/mL (≈ 0.869 µM)
MALME-3M melanoma
  GI50: 0.0663 µg/mL (≈ 0.126 µM)
  TGI: 0.356 µg/mL (≈ 0.674 µM)
RPMI-8226 leukemia
  GI50: 0.0159 µg/mL (≈ 0.0302 µM)
  TGI: 0.165 µg/mL (≈ 0.313 µM)
MCF7 breast
  TGI: 0.484 µg/mL (≈ 0.918 µM)
MOLT-4 leukemia
  TGI: 0.019 µg/mL (≈ 0.0361 µM)
MDA-N
  GI50: 0.156 µg/mL (≈ 0.296 µM)
  TGI: 0.391 µg/mL (≈ 0.741 µM)
RXF 393 renal
  GI50: 0.263 µg/mL (≈ 0.498 µM)
  TGI: 1.48 µg/mL (≈ 2.81 µM)
NCI-H226 lung
  TGI: 0.155 µg/mL (≈ 0.294 µM)
NCI-H23 lung
  GI50: 0.0174 µg/mL (≈ 0.033 µM)
  TGI: 0.692 µg/mL (≈ 1.31 µM)
TK-10 renal
  GI50: 0.273 µg/mL (≈ 0.518 µM)
  TGI: 18.6 µg/mL (≈ 35.3 µM)
NCI/ADR-RES ovarian
  GI50: 3.52 µg/mL (≈ 6.68 µM)
  TGI: 25 µg/mL (≈ 47.5 µM)
UACC-62 melanoma
  GI50: 0.0157 µg/mL (≈ 0.0297 µM)
  TGI: 0.0734 µg/mL (≈ 0.139 µM)
IGROV1 ovarian
  TGI: 1.68 µg/mL (≈ 3.18 µM)
UO-31 renal
  GI50: 0.26 µg/mL (≈ 0.494 µM)
  TGI: 5.46 µg/mL (≈ 10.4 µM)
SR leukemia
  TGI: 0.152 µg/mL (≈ 0.288 µM)
DU-145 prostate
  GI50: 0.0208 µg/mL (≈ 0.0393 µM)
  TGI: 1.65 µg/mL (≈ 3.13 µM)
T-47D breast
  GI50: 0.0185 µg/mL (≈ 0.0351 µM)
  TGI: 0.216 µg/mL (≈ 0.41 µM)
SF-295 CNS
  GI50: 0.0286 µg/mL (≈ 0.0542 µM)
  TGI: 0.168 µg/mL (≈ 0.318 µM)
SNB-19 CNS
  GI50: 0.0198 µg/mL (≈ 0.0375 µM)
  TGI: 2.11 µg/mL (≈ 3.99 µM)
SW-620 colon
  TGI: 0.47 µg/mL (≈ 0.892 µM)
PC-3 prostate
  GI50: 0.0336 µg/mL (≈ 0.0636 µM)
  TGI: 0.545 µg/mL (≈ 1.03 µM)
HCT-116 colon
  TGI: 2.06 µg/mL (≈ 3.9 µM)
OVCAR-8 ovarian
  GI50: 0.0205 µg/mL (≈ 0.0388 µM)
  TGI: 0.393 µg/mL (≈ 0.746 µM)
A498 renal
  GI50: 0.0558 µg/mL (≈ 0.106 µM)
  TGI: 0.39 µg/mL (≈ 0.739 µM)
CAKI-1 renal
  TGI: 0.015 µg/mL (≈ 0.0284 µM)
A549 NSCLC
  TGI: 1.85 µg/mL (≈ 3.51 µM)
SK-MEL-28 melanoma
  GI50: 0.104 µg/mL (≈ 0.197 µM)
  TGI: 0.607 µg/mL (≈ 1.15 µM)
NCI-H522 lung
  GI50: 0.0317 µg/mL (≈ 0.06 µM)
  TGI: 0.287 µg/mL (≈ 0.543 µM)
COLO 205 colon
  GI50: 0.114 µg/mL (≈ 0.216 µM)
  TGI: 0.334 µg/mL (≈ 0.634 µM)
OVCAR-3 ovarian
  GI50: 0.0426 µg/mL (≈ 0.0807 µM)
  TGI: 0.958 µg/mL (≈ 1.82 µM)
HOP-62 NSCLC
  GI50: 0.0221 µg/mL (≈ 0.0419 µM)
  TGI: 2.08 µg/mL (≈ 3.95 µM)
UACC-257 melanoma
  GI50: 0.116 µg/mL (≈ 0.22 µM)
  TGI: 2.06 µg/mL (≈ 3.9 µM)
SF-268 CNS
  TGI: 0.262 µg/mL (≈ 0.497 µM)
HL-60(TB) leukemia
  TGI: 0.0356 µg/mL (≈ 0.0675 µM)
EKVX NSCLC
  GI50: 0.191 µg/mL (≈ 0.362 µM)
  TGI: 2.66 µg/mL (≈ 5.05 µM)
CCRF-CEM leukemia
  TGI: 0.324 µg/mL (≈ 0.614 µM)
SN12C renal
  GI50: 0.0177 µg/mL (≈ 0.0336 µM)
  TGI: 3.98 µg/mL (≈ 7.54 µM)
HT29 colon
  GI50: 0.0242 µg/mL (≈ 0.0459 µM)
  TGI: 1.22 µg/mL (≈ 2.31 µM)
HS 578T breast
  GI50: 0.0481 µg/mL (≈ 0.0912 µM)
  TGI: 0.421 µg/mL (≈ 0.797 µM)
HOP-92 NSCLC
  GI50: 0.0155 µg/mL (≈ 0.0293 µM)
  TGI: 0.413 µg/mL (≈ 0.782 µM)
SNB-75 CNS
  GI50: 0.0256 µg/mL (≈ 0.0486 µM)
  TGI: 0.138 µg/mL (≈ 0.262 µM)
M14 melanoma
  GI50: 0.0403 µg/mL (≈ 0.0765 µM)
  TGI: 0.705 µg/mL (≈ 1.34 µM)
U251 CNS
  GI50: 0.0151 µg/mL (≈ 0.0287 µM)
  TGI: 1.84 µg/mL (≈ 3.49 µM)
OVCAR-5 ovarian
  GI50: 0.0674 µg/mL (≈ 0.128 µM)
  TGI: 3.46 µg/mL (≈ 6.56 µM)
SK-OV-3 ovarian
  GI50: 0.0312 µg/mL (≈ 0.0592 µM)
  TGI: 2.68 µg/mL (≈ 5.08 µM)
SK-MEL-5 melanoma
  GI50: 0.0193 µg/mL (≈ 0.0366 µM)
  TGI: 0.0525 µg/mL (≈ 0.0995 µM)
ACHN renal
  GI50: 0.0176 µg/mL (≈ 0.0334 µM)
  TGI: 0.1 µg/mL (≈ 0.19 µM)
HCT-15 colon
  GI50: 0.824 µg/mL (≈ 1.56 µM)
  TGI: 7.86 µg/mL (≈ 14.9 µM)
HCC-2998 colon
  GI50: 0.243 µg/mL (≈ 0.461 µM)
  TGI: 0.912 µg/mL (≈ 1.73 µM)
MDA-MB-231 breast
  GI50: 0.0409 µg/mL (≈ 0.0774 µM)
  TGI: 0.59 µg/mL (≈ 1.12 µM)
KM12 colon
  GI50: 0.0445 µg/mL (≈ 0.0844 µM)
  TGI: 0.776 µg/mL (≈ 1.47 µM)
LOX IMVI melanoma
  GI50: 0.0166 µg/mL (≈ 0.0314 µM)
  TGI: 1.57 µg/mL (≈ 2.97 µM)
SK-MEL-2 melanoma
  GI50: 0.102 µg/mL (≈ 0.194 µM)
  TGI: 0.403 µg/mL (≈ 0.764 µM)
SF-539 CNS
  TGI: 0.113 µg/mL (≈ 0.214 µM)
OVCAR-4 ovarian
  GI50: 0.0742 µg/mL (≈ 0.141 µM)
  TGI: 0.692 µg/mL (≈ 1.31 µM)
NCI-H460 lung
  TGI: 2.02 µg/mL (≈ 3.82 µM)
MDA-MB-435
  GI50: 0.0894 µg/mL (≈ 0.169 µM)
  TGI: 0.33 µg/mL (≈ 0.625 µM)
K-562 leukemia
  GI50: 0.0156 µg/mL (≈ 0.0295 µM)
  TGI: 0.922 µg/mL (≈ 1.75 µM)
786-0 renal
  GI50: 0.0177 µg/mL (≈ 0.0335 µM)
  TGI: 0.0836 µg/mL (≈ 0.158 µM)

Source: PubChem BioAssay (NCI)
